ChEMBL document CHEMBL5226289, “Discovery of natural anti-inflammatory alkaloids: Potential leads for the drug discovery for the treatment of inflammation” (Eur J Med Chem, 2021)
Residues, ends and D or L forms follow the SMILES beside them. *: point of attachment. Cbz = O=C(OCc1ccccc1)*

tested on: not listed separately; assay: Inhibition of NO production in LPS-stimulated mouse BV-2 cells preincubated with compound for 1 hrs followed by LPS stimulation and measured after 24 hrs by Griess reagent-based assay; type: functional, cell-based; details: not given

IC50 [µM]	Compound
4.6	COc1ccc2c(c1)[nH]c1cc(OC)c(C(=O)O)cc12 [CLAUSINE K]
6.4	O=Cc1cc2c(cc1O)[nH]c1cc(O)ccc12 [CLAUSINE O]
10.9	COc1c(CC=C(C)C)c(C=O)cc2c1[nH]c1cc(O)ccc12

Continued, compound first:

Compound	IC50 [µM]
CO[C@H]1[C@@H]2C[C@]34CCCCCCCCCCn5ccc2c5C(=O)[C@@H]3[C@H]2[C@H](O)CCCCCCCC[N@@+]21C4	2.1
CO[C@H]1[C@@H]2C[C@]34CCCCCCCCCCn5ccc2c5C(=O)[C@@H]3[C@H]2C(O)C/C=C\C/C=C\CCC[N@@+]21C4 (some centres undefined)	1.1

tested on: HEp-2; assay: Cytotoxicity against human HEp-2 cells assessed as inhibition of cell growth incubated for 48 hrs by MTT assay; type: functional, cell-based; details: HEp-2, 48 h, pooled result: one value given for 7 cell lines, strains, targets or settings

Compound	IC50 [µM]
COC1=CC(=O)c2cc3c4c(cc(O)c(OC)c4c2C1=O)CCN3C	8.7
COC1=CC(=O)c2cc3c4c(cc(OC)c(OC)c4c2C1=O)CCN3C	10.5
COc1ccc2c(cc3c4c(cc5c(c42)OCO5)CCN3C)c1O	28.9

tested on: RAW264.7; assay: Antiinflammatory activity against LPS-stimulated mouse RAW264.7 cells assessed as inhibition of TNF-alpha production incubated for 24 hrs by ELISA analysis relative to control; type: functional; details: not given

Compound	inhibition (INH) [%]
O=C1C=CC[C@@H]2[C@H]3CCCN4CCC[C@@H](CN12)[C@@H]34 [SOPHOCARPINE]	>40
O=C1C(O)=CC[C@@H]2[C@H]3CCCN4CCC[C@@H](CN12)[C@@H]34	>40
O=c1cccc2n1C[C@@H]1C[C@H]2CN2CCCC[C@@H]12	>40
O=c1cccc2n1C[C@@H]1CCCN3CCC[C@@H]2[C@H]13	>40

tested on: RAW264.7; assay: Antiinflammatory activity against LPS-stimulated mouse RAW264.7 cells assessed as inhibition of TNFalpha production at 20 uM preincubated for 27 hrs followed by LPS stimulation and measured after 12 hrs by ELISA analysis relative to control; type: functional; details: time 39 hrs

Compound	inhibition at 20 µM [%]
CC1(C)C=Cc2c(ccc3c2NC(=O)[C@@]32C[C@]34NC(=O)[C@]5(CCCN5C3=O)C[C@H]4C2(C)C)O1	> 32.6
C=CC(C)(C)[C@@]1(C[C@@H]2NC(=O)[C@@H]3CCCN3C2=O)C(=O)Nc2c1ccc(O)c2CC=C(C)C	> 32.6
CC1(C)C=Cc2c(ccc3c4c([nH]c23)C(C)(C)[C@@H]2C[C@]35CCCN3C(=O)[C@]2(C4)NC5=O)O1	> 32.6
CC1(C)C=Cc2c(ccc3c4c(n(S(C)(=O)=O)c23)C(C)(C)[C@@H]2C[C@]35CCCN3C(=O)[C@]2(C4)NC5=O)O1	> 32.6

tested on: not listed separately; assay: Inhibition of TNF-alpha production in LPS-stimulated human PBMC cells; type: functional, cell-based; details: not given

Compound	IC50 [µM]
COc1cc(Cc2ccc3c(c2)[nH]c2c4c(c(C)cc23)OC(C)(CCC=C(C)C)C=C4)cc2c1[nH]c1ccccc12 (centres undefined)	10

tested on: RAW264.7; assay: Antiinflammatory activity against mouse RAW264.7 cells assessed as inhibition of cell growth; type: functional, cell-based; details: not given

Compound	IC50 [µM]
Cc1ccc(-c2cc(C(F)(F)F)nn2-c2ccc(S(N)(=O)=O)cc2)cc1 [CELECOXIB]	34.3

tested on: RAW264.7; assay: Inhibition of NO production in LPS-induced mouse RAW264.7 cells; type: functional, cell-based; details: not given

IC50 [µM]	Compound
22.8	O=C(O)c1cc(C(=O)c2ccco2)n2c1CCC2
16.1	C[C@@H]1C[C@@H]2CCCN2[C@H](CC(=O)C[C@H]2N3CCC[C@H]3C[C@@H](C)[C@]2(O)c2ccccc2)[C@H]1c1ccccc1
14.3	C[C@@H]1C[C@@H]2CC[C@@H]3[C@@H](C(=O)C[C@@H]4N5CCCC5C[C@H](C)[C@@]4(O)c4ccccc4)[C@](C)(O)C[C@H](N23)[C@@]1(O)c1ccccc1 (some centres undefined)
47	C[C@@H]1C[C@H]2[C@@H]3CCC4=CC(=O)C=C[C@]4(C)[C@@]3(F)[C@@H](O)C[C@]2(C)[C@@]1(O)C(=O)CO [DEXAMETHASONE]

The remaining lines, values behind:

Compound	IC50 [µM]
CN1CCc2cc3c(c4c2[C@H]1Cc1c(O)cccc1-4)OCO3	1.39
COC1=C[C@@]23CCN(C)[C@@H](Cc4c(CN5CCc6cc(OC)c(OC)c7c6[C@H]5CC75C=CC(=O)C=C5)cc(OC)c(O)c42)C3=CC1=O	1.39

biological target: Prostaglandin G/H synthase 1 (Homo sapiens, UniProt P23219); assay: Inhibition of COX-1 (unknown origin) using arachidonic acid as substrate at 100 uM preincubated for 5 mins followed by substrate addition and measured after 15 mins relative to control; details: time 20.0 min
Sequence (P23219 whole entry): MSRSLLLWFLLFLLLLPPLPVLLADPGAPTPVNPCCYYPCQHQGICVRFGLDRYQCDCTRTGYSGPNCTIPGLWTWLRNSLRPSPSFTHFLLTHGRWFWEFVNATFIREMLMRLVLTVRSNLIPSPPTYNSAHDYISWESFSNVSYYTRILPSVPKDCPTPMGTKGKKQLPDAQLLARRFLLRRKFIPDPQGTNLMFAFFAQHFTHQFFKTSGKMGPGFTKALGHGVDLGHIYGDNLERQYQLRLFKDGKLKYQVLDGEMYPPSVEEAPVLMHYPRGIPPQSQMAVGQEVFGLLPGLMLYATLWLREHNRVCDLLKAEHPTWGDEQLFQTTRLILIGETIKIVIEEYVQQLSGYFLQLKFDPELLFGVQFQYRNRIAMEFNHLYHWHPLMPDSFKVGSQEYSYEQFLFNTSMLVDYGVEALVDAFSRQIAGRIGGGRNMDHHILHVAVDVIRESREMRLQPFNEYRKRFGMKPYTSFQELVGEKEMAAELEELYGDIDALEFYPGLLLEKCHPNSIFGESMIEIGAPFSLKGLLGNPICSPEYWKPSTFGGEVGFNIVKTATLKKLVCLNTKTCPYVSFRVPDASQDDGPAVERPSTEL

Compound	inhibition [%]
COc1cc2c(cc1OC)[C@H]1CCN(C2)C(=O)[C@@H](O)[C@H](O[C@@H]2O[C@H](C)[C@@H](OC)[C@@H]3OCOCO[C@@H]23)CC1=O	> 64
COc1c2c(cc3c1OCO3)[C@H]1CCN(C2)C(=O)[C@@H](O)[C@H](O[C@@H]2O[C@H](CO)[C@@H](OC)[C@H](OC)[C@H]2OC)CC1=O	> 64
COc1cc2c(cc1O)CN1CC[C@H]2C(=O)C[C@@H](O[C@@H]2O[C@H](CO)[C@@H](OC)[C@H](OC)[C@H]2OC)[C@H](O)C1=O	> 64
CO[C@H]1[C@@H]2OCOCO[C@H]2[C@H](O[C@@H]2CC(=O)[C@@H]3CCN(Cc4cc5c(cc43)OCO5)C(=O)[C@H]2O)O[C@@H]1C	> 64
COc1cc2c(cc1OC)[C@H]1CCN(C2)C(=O)[C@@H](O)[C@H](O[C@@H]2O[C@H](C)[C@@H](OC)[C@H](OC)[C@H]2OC)CC1=O	> 64

tested on: RAW264.7; assay: Inhibition of NO production in LPS-stimulated mouse RAW264.7 cells incubated for 24 hrs by Griess reagent-based assay; type: functional, cell-based; details: RAW264.7, 24 h

IC50 [µM]	Compound
3.6	C/C=C1\CO[C@H](OC)c2c1cc1n(c2=O)CCc2c-1[nH]c1ccccc21
1.3	Cc1cncc2c1CC1c3[nH]c4ccccc4c3CCN1C2=O (centres undefined)
38.6	CC[C@@H](C)[C@@H](C)C(=O)OC/C=C(\C)C(=O)OC[C@@H]1CCN2CCC[C@H]12
12	O=c1c(CO)ccc2n1CCc1c-2[nH]c2ccccc12
1.39	CO[C@@H]1C=C[C@@]23c4cc5c(cc4C(=O)N(CCc4ccccc4)[C@@H]2C(=O)N(C)[C@H]3C1)OCO5
0.8	Cc1[nH]c(C=O)c2c1C(=O)N1CCC3(C(=O)Nc4ccccc43)C1C2 (centres undefined)
12	O=C1C=CC2=NC=CC3c4cc(O)ccc4N1C23 (centres undefined)
7.7	O=C1C=CC2=NC=CC3c4ccc(O)cc4N1C23 (centres undefined)
1.6	C=Cc1cncc2c1CC1c3[nH]c4ccccc4c3CCN1C2=O (centres undefined)
2.4	C/C=C1/CN2CC[C@@H]1C(=O)c1[nH]c3ccc(OC)cc3c1C2
9.1	O=C1C=CC2=NC=CC3c4ccccc4N1C23 (centres undefined)
1.39	CC[C@H](C)CN1C(=O)c2cc3c(cc2[C@@]24C=C[C@@H](OC)C[C@@H]2N(C)C(=O)[C@@H]14)OCO3
15.1	C[C@@H](O)C1=CC2=NC=CC3c4ccccc4N(C1=O)C23 (some centres undefined)

Second part, the compound before the results:

Compound	IC50 [µM]
N=C(N)NN [PIMAGEDINE]	1.8
CN1CCc2cc3c(c4c2[C@H]1Cc1ccccc1-4)OCO3	1.39
C/C=C(/C)C(=O)O[C@@H]1CC[N+]2([O-])CC=C(COC(=O)[C@](O)(C(C)C)[C@H](C)OC)[C@H]12 (some centres undefined)	105
C[C@]12CCC(=O)C=C1CC[C@@H]1[C@@H]2[C@@H](O)C[C@@]2(C)[C@H]1CC[C@]2(O)C(=O)CO [HYDROCORTISONE]	3.4
O=C(OC[C@@H]1CCN2CCC[C@H]12)c1ccccc1	25.5
O=C1c2ccccc2-c2c3c(cc4ccnc1c24)OCO3 [LIRIODENINE]	1.39

tested on: not listed separately; assay: Inhibition of NO production in LPS-stimulated mouse BV-2 cells incubated for 24 hrs by Griess reagent-based assay; type: functional, cell-based; details: BV-2, 24 h

Compound	IC50 [µM]
C[C@@H]1CC2CC(=O)C3CCCN4CCC[C@@]2(O)C34C1 (some centres undefined)	4.2
C[C@@H]1CC2CC(=O)C3CCCN4CCCC2C34C1 (some centres undefined)	4.2
C[C@@H]1CC2CC(=O)C3CCCN4CC[C@@H](O)[C@]2(O)C34C1 (some centres undefined)	4.2
CC(=O)O[C@@H]1C2C[C@@H](OC(C)=O)C3CCCN4CCC[C@@]2(O)C34C[C@@H]1C (some centres undefined)	4.2
CC(=O)O[C@@H]1CC2C3CCCN4CCCC1C34C[C@H](C)[C@H]2O (some centres undefined)	4.2
C[C@H]1CC23C4CCCN2CCCC3[C@H](O)CC4[C@H]1O (some centres undefined)	4.2

tested on: RAW264.7; assay: Antiinflammatory activity in mouse RAW264.7 cells assessed as inhibition of LPS-stimulated iNOS activity preincubated with compound for 24 hrs followed by LPS stimulation for 2 hrs and measured 2 hrs after NADPH addition by fluorescence based assay; type: functional, cell-based; details: not given

Compound	IC50 [µM]
CC(C)C[C@@H](C=O)NC(=O)[C@H](CC(C)C)NC(=O)[C@H](CC(C)C)NC(=O)OCc1ccccc1 [MG-132] (Cbz-Leu-Leu-Leu-aldehyde)	0.2

tested on: RAW264.7; assay: Antiinflammatory activity against LPS-stimulated mouse RAW264.7 cells assessed as inhibition of IL-1beta production at 20 uM preincubated for 27 hrs followed by LPS stimulation and measured after 12 hrs by ELISA analysis relative to control; type: functional; details: time 39 hrs

Compound	inhibition at 20 µM [%]
CC1(C)C=Cc2c(ccc3c2NC(=O)[C@@]32C[C@]34NC(=O)[C@]5(CCCN5C3=O)C[C@H]4C2(C)C)O1	> 32.6
C=CC(C)(C)[C@@]1(C[C@@H]2NC(=O)[C@@H]3CCCN3C2=O)C(=O)Nc2c1ccc(O)c2CC=C(C)C	> 32.6
CC1(C)C=Cc2c(ccc3c4c([nH]c23)C(C)(C)[C@@H]2C[C@]35CCCN3C(=O)[C@]2(C4)NC5=O)O1	> 32.6
CC1(C)C=Cc2c(ccc3c4c(n(S(C)(=O)=O)c23)C(C)(C)[C@@H]2C[C@]35CCCN3C(=O)[C@]2(C4)NC5=O)O1	> 32.6

tested on: not listed separately; assay: Antiinflammatory activity in rat polymorphonuclear leucocyte cells assessed as inhibition of PAF-induced beta-glucuronidase release at 10 uM relative to control; type: functional; details: not given

Compound	inhibition at 10 µM [%]
CN1CCc2cc3c(cc2[C@@H]1[C@H]1OC(O)c2c1ccc1c2OCO1)OCO3 (some centres undefined)	36.5
C[C@@H]1C(=O)O[C@H]2C(O)C34[C@H]5C[C@@H](C(C)(C)C)[C@]36[C@@H](OC(=O)[C@@H]6O)O[C@@]4(C(=O)O5)[C@@]12O (some centres undefined)	51.3
COC1O[C@H]([C@H]2c3cc4c(cc3CCN2C)OCO4)c2ccc3c(c21)OCO3 (some centres undefined)	37.7
CN1CCc2cc3c(cc2[C@@H]1[C@H]1OC(=O)c2c1ccc1c2OCO1)OCO3	34.8
CN1Cc2cc3c(cc2Cc2ccc4c(c2C1)OCO4)OCO3	39.6

tested on: RAW264.7; assay: Antiinflammatory activity against LPS-stimulated mouse RAW264.7 cells assessed as inhibition of IL-6 production incubated for 24 hrs by ELISA analysis relative to control; type: functional; details: not given

Compound	inhibition (INH) [%]
O=C1C=CC[C@@H]2[C@H]3CCCN4CCC[C@@H](CN12)[C@@H]34 [SOPHOCARPINE]	>40
O=C1C(O)=CC[C@@H]2[C@H]3CCCN4CCC[C@@H](CN12)[C@@H]34	>40
O=c1cccc2n1C[C@@H]1C[C@H]2CN2CCCC[C@@H]12	>40
O=c1cccc2n1C[C@@H]1CCCN3CCC[C@@H]2[C@H]13	>40

tested on: Mus musculus; assay: Antiinflammatory activity in carrageenan-induced peritoneal Swiss albino mouse model assessed as decrease in number of leukocyte cells at 100 umol/kg, po pre-treated for 30 mins followed by carrageenan induction and measured after 4 hrs relative to control; type: functional; parameters: scale not given: the % may be the effect or the level left; details: dose 100 µmol/kg, time 4.5 hrs

Compound	Activity [%]
COc1ccc2c(c1)c(CC(=O)O)c(C)n2C(=O)c1ccc(Cl)cc1 [INDOMETHACIN]	72.1
